Experimental data taken from patent publication US20250188062A1, “TRIAZINE COMPOUNDS AND METHODS OF MAKING AND USING THE SAME” (Athos Therapeutics, Inc., priority 2021, published 2025).

How the values were obtained:
[1] = system: THP-1 human monocytes; experiment: Cellular assay for anti-inflammatory properties: cytokine ELISA multiplex in LPS-stimulated PMA-differentiated THP-1 macrophages; format: cell-based; settings: 1 μM, 4 hours before 100 ng/mL LPS for 4 or 24 hours; cytokine protein in media vs LPS+PMA only
Protocol: The anti-inflammatory properties of five JMJD3 inhibitors (99, 92, 93, 98, and 95, in no particularly order) were evaluated in an immune cellular assay targeting key pro-inflammatory cytokines involved in the pathogenesis of multiple autoimmune disease.
Specifically, THP-1 human monocytes were grown in 6-well plates (RPMI 1640+10% FBS+1% P/S). After washing with PBS the THP-1 cells were differentiated into macrophages using 20 nM of phorbol 12-myristate 13-acetate (PMA) for 24 hrs. 99, 92, 93, 98, and 95) (1 μM) were added into the macrophages, which are incubated for 4 hours before the addition of 100 ng/mL lipopolysaccharide (LPS) for either 4 or 24 hours. Next, the macrophages are collected via centrifugation at 1.2K rpm for 5 min and use their media to evaluate cytokine protein levels by using the Bio-rad Cytokine ELISA multiplex assay (cat. No M5000031YV). The supernatants from macrophages treated only with only LPS+PMA were collected and used as negative controls.

[2] = system: Naïve CD4+ T human cells; experiment: Cellular assay for FoxP3 induction activity (qPCR of FoxP3 mRNA); format: cell-based; settings: CD4+ T cells activated with anti-CD3, IL-2 and TGF-β for 5 days; FoxP3 mRNA by qPCR on day 5; FIG. 3
Protocol: CD4+CD25+FOXP3+ regulatory T cells (Tregs) suppress pro-inflammatory cells and signals and are critical mediators of tolerance, inhibiting excessive inflammation and autoimmunity. Also, treatment of CD4+ T cells with interleukin 2 (IL-2) and transforming growth factor beta (TGF-β) signaling are important for FOXP3 induction and Treg formation.
Naïve CD4+ T human cells (cat. no 2W-200, Lonza) were cultured and activated with artificial antigen-presenting cells and soluble anti-CD3 (100 ng/ml) in the presence of IL-2 (300 U/ml) and TGF-β (10 ng/ml) for 5 days. On day 3, cells were transfected with an anti-sense RNA against JMJD3 (cat. No 1299001, Thermo) using Lipofectamine 2000 (cat. No 11668027, Thermo). On day 5, RNA was extracted and qPCR analysis was performed to evaluate FoxP3 mRNA levels by using the following primers: F: 5′-TCCACAACATGCGACCCCCTTTCA-3′ and R: 5′-ACAGCCCCCTTCTCGCTCTCCA-3′ having a 217 bp product. All JMJD3 inhibitors (99, 92, 93, 98, and 95) in CD4+ T cells induced 7-fold FoxP3 expression levels, thus moving towards differentiation and formation of Tregs. […] Thus, genetic or pharmacological inhibition of […] will result into FoxP3 activation and induction of Treg formation. Based on this evidence, JMJD3 inhibitors (99, 92, 93, 98, and 95)) could be used in autoimmune diseases where T-regulatory cells have therapeutic potential. There is increasing evidence and literature derived from human clinical studies (Arellano B et al., Regulatory T Cell-based Therapies for Autoimmunity, Discov Med, 22:73-80, 2016).

[3] = Stability under acidic LCMS condition; format: physicochemical; settings: 0.1% formic acid mobile phase; hydrolyzed —OH product found
Protocol: All reactions were carried out under an atmosphere of argon. Reagents and solvents were used from commercial sources without additional purification. Hydrogenation reactions were run under a balloon. Microwave reactions were performed using a CEM Discover SP microwave synthesizer. Sample purification was conducted on a Buchi Pureflash with ELSD purification system using pre-packed commercially available silica gel columns. Thin layer chromatography (TLC) was performed on aluminium plates using Merck Kiesegel 60 F254 (230-400 mesh) fluorescent treated silica which were visualized under ultraviolet light (254 nm), or by staining with potassium permanganate or ninhydrin solution as appropriate. All Nuclear Magnetic Resonance (NMR) spectra were acquired on a Bruker Avance III HD 400 MHz NMR spectrometer; chemical shifts are reported in ppm (δ). […] All compounds purity was analyzed on Agilent 1260 Infinity II Lab LC Series HPLC (1260 Quatpum, 1260 vial autosampler, ICC column oven, 1260 DAD WR detector). […] All compounds that were evaluated in biological assay had >90% and animal study had >95% purity. […]

[4] = target: JMJD3 (Homo sapiens, UniProt O15054); experiment: JMJD3 binding assay (Kd, affinity beads, qPCR readout); settings: 11-point 3-fold dilution series, 0.9% DMSO, room temperature 1 hour; read-out: JMJD3 Affinity (binding constant, Kd)
Protocol: Test compounds were prepared as 111X stocks in 100% DMSO. Kd values are determined using an 11-point 3-fold compound dilution series with three DMSO control points. All compounds for Kd measurements were distributed by acoustic transfer (non-contact dispensing) in 100% DMSO. The compounds were then diluted directly into the assays such that the final concentration of DMSO was 0.9%. All reactions were performed in polypropylene 384-well plate. Each was a final volume of 0.02 ml. The assay plates were incubated at room temperature with shaking for 1 hour and the affinity beads were washed with wash buffer (lx PBS, 0.05% Tween 20). The beads were then re-suspended in elution buffer (lx PBS, 0.05% Tween 20, 0.5 μM non-biotinylated affinity ligand) and incubated at room temperature with shaking for 30 minutes. The kinase concentration in the eluates was measured by qPCR. Binding constants are calculated with a standard dose-response curve using the Hill equation:
The Hill Slope was set to −1. Curves were fitted using a non-linear least square fit with the Levenberg-Marquardt algorithm. The binding data is summarized in Table 2 where A is less than 100 nM, B is 100 to 500 nM, and C is greater than 500 nM.

JMJD3, sequence (O15054 whole entry, species assumed): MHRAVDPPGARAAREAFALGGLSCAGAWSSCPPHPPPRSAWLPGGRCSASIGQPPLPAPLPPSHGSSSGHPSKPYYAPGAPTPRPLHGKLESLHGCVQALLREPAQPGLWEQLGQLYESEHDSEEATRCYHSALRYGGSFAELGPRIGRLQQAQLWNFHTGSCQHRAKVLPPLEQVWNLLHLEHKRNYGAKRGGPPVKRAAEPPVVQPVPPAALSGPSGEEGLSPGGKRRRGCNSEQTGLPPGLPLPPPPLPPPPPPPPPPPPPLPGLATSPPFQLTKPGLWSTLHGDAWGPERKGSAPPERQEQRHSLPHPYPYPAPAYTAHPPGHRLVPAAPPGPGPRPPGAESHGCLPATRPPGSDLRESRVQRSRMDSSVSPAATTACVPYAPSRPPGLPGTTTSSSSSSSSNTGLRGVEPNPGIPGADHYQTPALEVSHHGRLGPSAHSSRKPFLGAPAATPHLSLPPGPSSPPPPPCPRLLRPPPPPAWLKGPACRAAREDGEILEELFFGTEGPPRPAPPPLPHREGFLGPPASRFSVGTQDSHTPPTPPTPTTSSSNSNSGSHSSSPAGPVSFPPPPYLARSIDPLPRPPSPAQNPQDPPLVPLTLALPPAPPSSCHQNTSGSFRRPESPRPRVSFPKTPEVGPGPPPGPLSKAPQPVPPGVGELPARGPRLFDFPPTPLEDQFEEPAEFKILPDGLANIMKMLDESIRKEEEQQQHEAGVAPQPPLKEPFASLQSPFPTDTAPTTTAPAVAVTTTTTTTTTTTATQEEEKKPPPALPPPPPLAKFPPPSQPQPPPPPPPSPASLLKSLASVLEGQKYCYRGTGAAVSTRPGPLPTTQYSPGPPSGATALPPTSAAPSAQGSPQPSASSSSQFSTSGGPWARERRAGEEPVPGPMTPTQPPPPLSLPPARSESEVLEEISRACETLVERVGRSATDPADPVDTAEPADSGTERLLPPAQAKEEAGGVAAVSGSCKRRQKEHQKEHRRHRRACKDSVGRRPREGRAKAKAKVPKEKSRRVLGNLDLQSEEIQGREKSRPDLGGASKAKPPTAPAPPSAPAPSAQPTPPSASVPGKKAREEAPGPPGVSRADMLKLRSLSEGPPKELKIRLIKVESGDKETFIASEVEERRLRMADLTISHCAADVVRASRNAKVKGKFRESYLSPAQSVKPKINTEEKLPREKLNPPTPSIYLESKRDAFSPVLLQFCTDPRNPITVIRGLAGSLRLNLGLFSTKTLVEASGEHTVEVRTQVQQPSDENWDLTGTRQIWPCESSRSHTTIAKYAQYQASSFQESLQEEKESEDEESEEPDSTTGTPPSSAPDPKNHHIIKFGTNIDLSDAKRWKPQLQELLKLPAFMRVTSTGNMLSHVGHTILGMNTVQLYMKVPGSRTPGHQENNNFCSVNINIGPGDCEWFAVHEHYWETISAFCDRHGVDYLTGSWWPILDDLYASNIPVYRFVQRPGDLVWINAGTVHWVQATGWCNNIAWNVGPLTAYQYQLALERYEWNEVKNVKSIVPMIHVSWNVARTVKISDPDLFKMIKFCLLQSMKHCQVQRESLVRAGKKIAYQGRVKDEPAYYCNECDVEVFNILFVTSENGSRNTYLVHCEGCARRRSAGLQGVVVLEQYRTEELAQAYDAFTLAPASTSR

## c1ccc2c(c1)ccn2-c1nc(OC2CCCC2)nc(-n2cccn2)n1 [Compound 95, 1-(4-(Cyclopentyloxy)-6-(1H-pyrazol-1-yl)-1,3,5-triazin-2-yl)-1H-indole]
[1]
  suppression of TNF-alpha (TNFA): suppression
  suppression of interleukin 1beta (IL1B): suppression
  suppression of interleukin 5 (IL5): suppression
  suppression of interleukin 6 (IL6): suppression
  suppression of interleukin 8 (IL8): suppression
  suppression of interleukin 13 (IL13): suppression
[2]
  FoxP3 expression levels (induction): 7 fold
[3]
  stability under acidic LCMS condition: unstable
[4]
  Kd: < 100 nM
